These results are taken from patent US20260297098A1, “HETEROCYCLIC COMPOUNDS AS PARP1 INHIBITORS” (Synnovation Therapeutics, Inc., priority 2023, published 2026).

The experiment deals with T1, hydrogen peroxide-induced PARylation in HeLa cells (wide-type with PARP1 gene) (Homo sapiens, UniProt P09874).
T1 construct: H2O2-induced PARylation, In-Cell Western with anti-PAR antibody
In words: In-Cell Western measurement of PARylation in PARP1 WT (HeLa) cells. It counts as cell-based. The conditions noted are these: 60 min compound pre-treatment, 10 mM hydrogen peroxide for 15 min, read-out: HeLa_WT_IC50. The source says: Example A. In-Cell Western Measurement of PARylation in PARP1 WT and Knockout Cells
The purpose of this cell-based assay is to measure the potency and selectivity of synthesized PARP inhibitors in suppressing hydrogen peroxide-induced PARylation in cells with and without PARP1 expression. Several cell lines were used in this assay. HeLa cells (wide-type with PARP1 gene) were purchased from ATCC. The HAP1 cell line without the PARP1 gene (#HZGHC003943c006) was purchased from Horizon Discovery. Cells were cultured using complete medium containing 10% fetal bovine serum. One day before the assay, cells were seeded in 96-well plates at the density of 20,000 cells per well in 80 uL complete medium. Compounds were dissolved using DMSO and diluted to the working concentrations using complete medium. Cells were pre-treated with compounds for 60 min and then stimulated with 10 mM hydrogen peroxide for 15 min. After stimulation, cells were immediately fixed using ice-cold methanol for 20 min. After fixation, cells were washed using 1×PBST buffer for 3 times, 5 min each time, to eliminate residual methanol. Cells were blocked for 1 h at room temperature in blocking buffer (10% goat serum, 1% BSA, 0.1% Triton X-100 in PBST). Primary antibody was diluted in blocking buffer at 50 uL per well. Cells were incubated with the primary antibody (Adipogen, AG-20T-0001-M001, 1:300) at 4° C. for 18 h. The wells were then washed using 1×PBST for 3 times, 5 min each time. IRDye® 680RD Goat anti-Mouse IgG (H+L) secondary antibody was diluted at 1/1000 using the diluent buffer and added at 50 uL per well. Secondary antibody incubation was for 1 h at room temperature. Cells were then washed using 1×PBST for 3 times, 5 min each time. The signal was detected and analyzed using LI-COR Odyssey DLx Imaging system. Data were collected and further processed using GraphPad Prism for IC50 estimation.

Structures are written as SMILES.

T1 sequence (P09874 whole entry): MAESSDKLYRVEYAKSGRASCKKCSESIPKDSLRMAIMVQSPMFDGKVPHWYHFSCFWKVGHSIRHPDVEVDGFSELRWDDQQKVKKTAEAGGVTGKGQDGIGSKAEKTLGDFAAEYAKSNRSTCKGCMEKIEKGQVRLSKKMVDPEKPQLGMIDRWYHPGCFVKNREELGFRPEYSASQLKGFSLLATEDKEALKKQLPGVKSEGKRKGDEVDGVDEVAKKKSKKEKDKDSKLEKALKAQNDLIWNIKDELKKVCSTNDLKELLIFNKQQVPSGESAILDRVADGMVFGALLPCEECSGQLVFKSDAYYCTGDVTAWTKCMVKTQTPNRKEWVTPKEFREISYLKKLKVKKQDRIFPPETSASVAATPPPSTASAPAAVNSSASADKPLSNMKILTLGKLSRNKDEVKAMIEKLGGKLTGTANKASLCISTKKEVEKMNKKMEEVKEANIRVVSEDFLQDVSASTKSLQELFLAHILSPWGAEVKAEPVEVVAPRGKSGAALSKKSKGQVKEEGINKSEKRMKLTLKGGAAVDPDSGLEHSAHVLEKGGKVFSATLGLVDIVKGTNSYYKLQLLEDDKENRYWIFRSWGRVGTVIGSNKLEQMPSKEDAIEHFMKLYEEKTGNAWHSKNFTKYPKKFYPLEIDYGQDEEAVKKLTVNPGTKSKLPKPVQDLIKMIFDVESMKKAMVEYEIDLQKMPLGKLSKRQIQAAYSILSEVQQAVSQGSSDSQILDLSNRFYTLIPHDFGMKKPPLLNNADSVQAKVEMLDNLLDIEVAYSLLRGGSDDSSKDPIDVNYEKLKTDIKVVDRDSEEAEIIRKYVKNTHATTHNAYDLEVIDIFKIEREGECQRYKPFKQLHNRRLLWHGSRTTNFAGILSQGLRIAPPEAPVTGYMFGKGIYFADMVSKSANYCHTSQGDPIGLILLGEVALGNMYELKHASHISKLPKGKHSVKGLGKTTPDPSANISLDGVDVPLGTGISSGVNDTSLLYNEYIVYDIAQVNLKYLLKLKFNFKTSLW

`CCN1C(=O)Nc2c(F)c(CN3CC(Oc4ccc(C(=O)NC5CC5)nc4)C3)cc3ncnc1c23` [Example 7, N-cyclopropyl-5-((1-((3-ethyl-9-fluoro-2-oxo-2,3-dihydro-1H-pyrimido[4,5,6-de]quinazolin-8-yl)methyl)azetidin-3-yl)oxy)picolinamide]: the IC50 was ≤ 10 nM.

Turning to `CCN1C(=O)Nc2c(F)c(CN3C[C@H](Oc4ccc(C(=O)NC)nc4)[C@H]3C)cc3ncnc1c23` [Example 2, 5-(((2R,3S)-1-((3-ethyl-9-fluoro-2-oxo-2,3-dihydro-1H-pyrimido[4,5,6-de]quinazolin-8-yl)methyl)-2-methylazetidin-3-yl)oxy)-N-methylpicolinamide], the IC50 was ≤ 10 nM.

On to `CCN1C(=O)Nc2cc(CN3C[C@H](Oc4ccc(C(=O)NC5CC5)nc4)[C@H]3C)cc3ncnc1c23` [Example 6, N-cyclopropyl-5-(((2R,3S)-1-((3-ethyl-2-oxo-2,3-dihydro-1H-pyrimido[4,5,6-de]quinazolin-8-yl)methyl)-2-methylazetidin-3-yl)oxy)picolinamide], for which the IC50 is ≤ 10 nM.

As to `CCN1C(=O)Nc2cc(CN3CC(Oc4ccc(C(=O)NC)nc4C)C3)cc3ncnc1c23` [Example 9, 5-((1-((3-Ethyl-2-oxo-2,3-dihydro-1H-pyrimido[4,5,6-de]quinazolin-8-yl)methyl)azetidin-3-yl)oxy)-N,6-dimethylpicolinamide], the IC50 was ≤ 10 nM.

On to `CCN1C(=O)Nc2cc(CN3C[C@H](Oc4ccc(C(=O)NC)nc4)[C@H]3C)cc3ncnc1c23` [Example 4, 5-(((2R,3S)-1-((3-ethyl-2-oxo-2,3-dihydro-1H-pyrimido[4,5,6-de]quinazolin-8-yl)methyl)-2-methylazetidin-3-yl)oxy)-N-methylpicolinamide], for which the IC50 is ≤ 10 nM.

Turning to `CCN1C(=O)Nc2cc(CN3CC(Oc4ccc(C(=O)NC)nc4)C3)cc3ncnc1c23` [Example 3, 5-((1-((3-Ethyl-2-oxo-2,3-dihydro-1H-pyrimido[4,5,6-de]quinazolin-8-yl)methyl)azetidin-3-yl)oxy)-N-methylpicolinamide], the IC50 was ≤ 10 nM.

As for `CCN1C(=O)Nc2c(F)c(CN3C[C@H](Oc4ccc(C(=O)NC5CC5)nc4)[C@H]3C)cc3ncnc1c23` [Example 8, N-cyclopropyl-5-(((2R,3S)-1-((3-ethyl-9-fluoro-2-oxo-2,3-dihydro-1H-pyrimido[4,5,6-de]quinazolin-8-yl)methyl)-2-methylazetidin-3-yl)oxy)picolinamide], the IC50 was ≤ 10 nM.

Turning to `CCN1C(=O)Nc2cc(CN3C[C@H](Oc4ccc(C(=O)NC)nc4C)[C@H]3C)cc3ncnc1c23` [Example 10, 5-(((2R,3S)-1-((3-ethyl-2-oxo-2,3-dihydro-1H-pyrimido[4,5,6-de]quinazolin-8-yl)methyl)-2-methylazetidin-3-yl)oxy)-N,6-dimethylpicolinamide], the IC50 was ≤ 10 nM.

In the case of `CCN1C(=O)Nc2c(F)c(CN3CC(Oc4ccc(C(=O)NC)nc4)C3)cc3ncnc1c23` [Example 1, 5-((1-((3-Ethyl-9-fluoro-2-oxo-2,3-dihydro-1H-pyrimido[4,5,6-de]quinazolin-8-yl)methyl)azetidin-3-yl)oxy)-N-methylpicolinamide], the IC50 was ≤ 10 nM.

In the case of `CCN1C(=O)Nc2cc(CN3CC(Oc4ccc(C(=O)NC5CC5)nc4)C3)cc3ncnc1c23` [Example 5, N-cyclopropyl-5-((1-((3-ethyl-2-oxo-2,3-dihydro-1H-pyrimido[4,5,6-de]quinazolin-8-yl)methyl)azetidin-3-yl)oxy)picolinamide], the IC50 was ≤ 10 nM.
